# In patent US20210087222A1, “COMPOUNDS FOR TREATING NEURODEGENERATIVE DISORDERS” (ETHNODYNE, priority 2017, published 2021):
# Tests used:
# [1] = tested on: primary rat motor neurons injured with glutamate; assay: Primary motor neuron culture survival after glutamate injury (in vitro ALS model); assay type: cell-based
# Procedure: The aim of this study was to study the effect of CR591 on primary motor neuron culture from rat spinal cord (SC) injured by glutamate exposure (a well validated in vitro ALS model and model of motor neuron diseases).
# Rat SC motor neurons were cultured as described by Martinou et al., Neuron. 1992 April; 8(4):737-44 and Wang et al., Hum Mol Genet. 2013 Dec. 1; 22(23):4706-19. Briefly, pregnant female rats (Wistar, Janvier labs) of 14 days gestation were killed by cervical dislocation. […] Cells were then centrifuged at 180 g for 10 min at +4° C. on a layer of BSA (3.5%) in L15 medium. […] The medium was changed every day.
# The following conditions were assessed: • Control • + glutamate (5 μM 20 mn then 48 h) • + glutamate (5 μM 20 mn then 48 h)+CR591 1 pmol/L • + glutamate (5 μM 20 mn then 48 h)+CR591 10 pmol/L • + glutamate (5 μM 20 mn then 48 h)+CR591 100 pmol/L • + glutamate (5 μM 20 mn then 48 h)+CR591 1 nmol/L • + glutamate (5 μM 20 mn then 48 h)+CR591 10 nmol/L • + glutamate (5 μM 20 mn then 48 h)+CR591 100 nmol/L • + glutamate (5 μM 20 mn then 48 h)+CR591 1 μmol/L • + glutamate (5 μM 20 mn then 48 h)+CR591 10 μmol/L […]
# For each condition, 6 wells were assessed, 30 pictures per well were taken using ImageXpress (Molecular Devices) with 20× magnification, to assess motor neuron survival (MAP-2). […]
# [2] = tested on: Human MRC-5 cell line derived from normal lung tissue; assay: Cytotoxicity test, MTS cell growth inhibition assay; assay type: cell-based; conditions: MRC-5 cells, 72 h incubation, 8 concentrations, FIG. 1a
# Procedure: (§1) Human MRC-5 cell line derived from normal lung tissue and human HCT-116 colorectal carcinoma were obtained from the American Type Culture Collection (ATCC, Rockville, Md.). Primary Human Umbilical Vein Endothelial Cells (HUVEC) isolated from the vein of the umbilical cord were obtained from Promocell (Germany). Cell lines were cultured according to the supplier's instructions. Human HCT-116 cells were grown in Gibco McCoy's 5A supplemented with 10% fetal calf serum (FCS) and 1% glutamine. Human MRC-5 cells were grown in DMEM supplemented with 10% fetal calf serum (FCS) and 1% glutamine. HUVECs were grown in Endothelial Cell Growth Medium 2 which is low-serum (2% V/V) media optimized for the cultivation of endothelial cells from large blood vessels.
# (§2) Cells were counted using a Vi-cell XR (Beckman Coulter) and their viability assessed by 0.25% trypan blue dye exclusion. They were tested for the presence of mycoplasma before experiments with the Mycoplasma PCR Detection Kit (Applied Biological Materials Inc., Canada) in accordance with the manufacturer instructions and only mycoplasma-free cells were used for further investigations.
# (§3) Cell lines were maintained at 37° C. in a humidified atmosphere containing 5% CO2. Cell growth inhibition was determined by an MTS assay according to the manufacturer's instructions (Promega, Madison, Wis., USA). […] After 24 h of culture, the cells were treated with the compound CR591 of example 1 at 8 different final concentrations. Each concentration was obtained from serial dilutions in culture medium starting from the stock solution. Control cells were treated with the vehicle. Experiments were performed in triplicate.
# (§4) After 72 h of incubation, 20 μL of CellTiter 96® AQueous One Solution Reagent was added for 2 h before recording absorbance 490 nm with a spectrophotometric plate reader. The dose-response curves were plotted with Graph Prism software and the IC50 values were calculated using the Graph Prism software from polynomial curves (four or five-parameter logistic equations).
# [3] = tested on: Primary Human Umbilical Vein Endothelial Cells (HUVEC); assay: as above; assay type: cell-based; conditions: 72 h incubation, 8 concentrations, FIG. 1c
# Procedure: as §1, §2, §3, §4
# [4] = tested on: human HCT-116 colorectal carcinoma; assay: as above; assay type: cell-based; conditions: HCT-116 cells, 72 h incubation, 8 concentrations, FIG. 1b
# Procedure: as §1, §2, §3, §4
# [5] = tested on: MAG positive cells (OL) in primary cocultures of central neurons and oligodendrocytes; assay: In vitro MS (myelination) model, MAG evaluation at day 18; assay type: cell-based, rat; conditions: 18 days of treatment, bell shape curve
# Procedure: (§5) A reproducible in vitro myelination model based on primary cocultures of central neurons and oligodendrocytes culturing in 96-well plate is used and adapted to high throughput screening.
# (§6) Neurons/oligodendrocytes were cultured as previously described by Charles et al., 2000. PNAS 97 7585-7590.
# Briefly, pregnant Wistar female rats of 17 days gestation were killed by cervical dislocation (Janvier Labs, France) and the foetuses removed from the uterus. The forebrains were removed and placed in ice-cold medium of Leibovitz (L15; Pan Biotech, Germany) containing 2% of Penicillin-Streptomycin (Batch 1451013, PanBiotech) and 1% of bovine serum albumin (BSA) (Batch K180713, Pan Biotech). Cortexes were dissociated by trypsinisation for 20 min at 37° C., with Trypsin EDTA 1X (Batch 7310713, PanBiotech). The reaction was stopped by the addition of Dulbecco's modified Eagle's medium (DMEM) (Batch 9710913, PanBiotech) containing DNAase I grade II at 0.1 mg/mL (Batch H131108, PanBiotech) and 10% of foetal calf serum (Batch 41Q7218K, Invitrogen, France). Cells were then mechanically dissociated by 3 passages through a 10 mL pipette. Cells were centrifuged at 180×g for 10 min at 4° C. temperature on a layer of BSA (3.5%) in L15 medium. The supernatant was discarded and cells of the pellet were re-suspended in DMEM containing 10% of FCS. […] The supernatant was discarded and cells of pellet were re-suspended in a culture medium consisting of Neurobasal (Batch 1625353, Invitrogen) supplemented with 2% of B27 (Batch 1618508, Invitrogen), 2 mM of L-glutamine (Batch 6620314, PanBiotech), 2% of PS solution, 1% of foetal calf serum (FCS) and 10 ng/mL of platelet-derived growth factor (PDGF-AA) (Batch H131205, PanBiotech). […]
# (§7) The immunolabeled cultures were automatically examined with ImageXpress (Molecular Devices) equipped with a LED at ×20 magnification. […] Number of A2B5 positive cells and number of MAG positive cells were automatically analyzed by using Custom module editor (Molecular Devices). […] All values were expressed as mean+/−SEM (s.e.mean) of the 6 wells. […]
# [6] = tested on: OPC (precursor cells of oligodendrocytes) in primary cocultures of central neurons and oligodendrocytes; assay: In vitro MS (myelination) model, OPC number (A2B5 positive cells) at day 12; assay type: cell-based, rat; conditions: 12 days treatment
# Procedure: as §5, §6
# Briefly, pregnant Wistar female rats of 17 days gestation were killed by cervical dislocation (Janvier Labs, France) and the foetuses removed from the uterus. The forebrains were removed and placed in ice-cold medium of Leibovitz (L15; Pan Biotech, Germany) containing 2% of Penicillin-Streptomycin (Batch 1451013, PanBiotech) and 1% of bovine serum albumin (BSA) (Batch K180713, Pan Biotech). Cortexes were dissociated by trypsinisation for 20 min at 37° C., with Trypsin EDTA 1X (Batch 7310713, PanBiotech). The reaction was stopped by the addition of Dulbecco's modified Eagle's medium (DMEM) (Batch 9710913, PanBiotech) containing DNAase I grade II at 0.1 mg/mL (Batch H131108, PanBiotech) and 10% of foetal calf serum (Batch 41Q7218K, Invitrogen, France). […]
# as §7
SMILES,"motor neuron death ([1]; glutamate 5 μM for 20 min, read 48 h later, versus control = 100%) [%]","protective effect of motor neuron (survival, MAP-2) ([1]; added 1 h before glutamate (5 μM 20 min, then 48 h), between 1 nM and 10 nM, FIG. 4)",toxicity (cell growth inhibition) [2],toxicity (cell growth inhibition) [3],toxicity (cell growth inhibition) [4],concentration of maximal effect on MAG positive cells / myelination [5] [nM],number of MAG positive cells ([5]; FIG. 3a),myelination of neurons by OL (area of MAG expression) ([5]; FIG. 3b),"OPC number (A2B5 positive cells) ([6]; 1 pmol/L to 10 μmol/L, FIG. 2)","total number of OPCs at the highest doses ([6]; highest doses, inhibition of proliferation or toxic effect)"
"N[C@@H](CCC(=O)O)C(=O)O [Glutamate, glutamate, reference compound]",> 30,–,–,–,–,–,–,–,–,–
CC1=C(CO)C(=O)O[C@@H]([C@@H](C)[C@H]2CCC3C4C[C@H](SC[C@H](N)C(=O)O)[C@]5(O)[C@@H](O)C=CC(=O)[C@]5(C)C4CC[C@@]32C)C1 (stereo partly shown) [CR591],–,moderate and significant protective effect,does not show any toxicity,does not show any toxicity,does not show any toxicity,1,able to increase the number of MAG positive cells,significantly improved the myelination of neurons by OL,did not show any significant increase,decrease of the total number of OPCs was observed
